Assay results from paper PMC7801405, “Structure, substrate specificity, and catalytic mechanism of human D-2-HGDH and insights into pathogenicity of disease-associated mutations” (Cell Discovery, 2021).
Blank lines part the entries; values can stand above or below the compound they belong to.

Assays:
[1] = biological target: T1, D-2-hydroxyglutarate dehydrogenase (D-2-HGDH) (Homo sapiens, UniProt Q8N465); assay: crystal structure ([…] Å); SPR with DTT-treated protein (reduced FAD); no measurable binding to the untreated protein
T1 construct: gene D2HGDH
T1 sequence (Q8N465 51-521): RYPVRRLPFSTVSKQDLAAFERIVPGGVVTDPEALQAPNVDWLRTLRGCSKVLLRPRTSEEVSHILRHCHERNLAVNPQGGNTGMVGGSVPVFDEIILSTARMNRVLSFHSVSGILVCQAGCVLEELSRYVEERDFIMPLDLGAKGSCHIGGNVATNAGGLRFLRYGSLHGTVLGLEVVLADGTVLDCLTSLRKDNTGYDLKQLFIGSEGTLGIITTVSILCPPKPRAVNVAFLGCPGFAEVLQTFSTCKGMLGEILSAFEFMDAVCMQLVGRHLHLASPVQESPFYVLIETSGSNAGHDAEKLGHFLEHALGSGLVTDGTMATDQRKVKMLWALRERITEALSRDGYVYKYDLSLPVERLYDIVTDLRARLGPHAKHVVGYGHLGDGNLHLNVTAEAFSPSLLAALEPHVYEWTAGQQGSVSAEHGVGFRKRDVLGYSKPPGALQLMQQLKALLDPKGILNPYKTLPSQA

[2] = biological target: T1, D-2-hydroxyglutarate dehydrogenase (D-2-HGDH); assay: crystal structure ([…] Å), SPR, enzyme kinetics; type: binding
[3] = biological target: T1, D-2-hydroxyglutarate dehydrogenase (D-2-HGDH); assay: crystal structure ([…] Å), SPR, enzyme kinetics; type: binding; remark: listed apart in the source
[4] = biological target: T1, D-2-hydroxyglutarate dehydrogenase (D-2-HGDH); assay: crystal structure ([…] Å), SPR, enzyme kinetics; type: binding; remark: listed apart in the source

Compound: O=C(O)CCC(=O)C(=O)O [2-OG, 2-oxoglutarate]
Kd [1]: 7 mM

Kd [2]: 799 µM
Compound: O=C(O)C[C@@H](O)C(=O)O [D-MAL, D-malate]

Kd [3]: 149 µM
Compound: O=C(O)CC[C@@H](O)C(=O)O [D-2-HG, D-2-hydroxyglutarate]

Kd [4]: 1.62 mM
Compound: C[C@@H](O)C(=O)O [D-LAC, D-lactate]
